Activity calls are given as the source filed them.
Columns and labels:
[1] = target: T1, AarF domain-containing protein kinase 1 (Homo sapiens, UniProt Q86TW2)
T1 sequence (Q86TW2 whole entry): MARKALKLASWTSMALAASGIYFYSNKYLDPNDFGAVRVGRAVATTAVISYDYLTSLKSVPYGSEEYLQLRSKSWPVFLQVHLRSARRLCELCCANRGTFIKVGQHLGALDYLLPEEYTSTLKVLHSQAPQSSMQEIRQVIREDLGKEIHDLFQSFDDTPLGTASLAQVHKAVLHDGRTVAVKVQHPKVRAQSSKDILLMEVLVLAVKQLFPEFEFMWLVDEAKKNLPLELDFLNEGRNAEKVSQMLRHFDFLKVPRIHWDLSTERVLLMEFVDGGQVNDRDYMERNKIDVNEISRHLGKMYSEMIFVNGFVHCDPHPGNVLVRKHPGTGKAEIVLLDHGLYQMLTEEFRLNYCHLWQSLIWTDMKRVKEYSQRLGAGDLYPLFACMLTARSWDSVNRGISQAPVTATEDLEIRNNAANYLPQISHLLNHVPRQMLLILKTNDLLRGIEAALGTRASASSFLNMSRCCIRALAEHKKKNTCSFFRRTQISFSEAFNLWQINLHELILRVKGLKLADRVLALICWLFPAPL

[2] = target: T2, Electron transfer flavoprotein subunit beta (Homo sapiens, UniProt P38117)
T2 sequence (P38117 whole entry): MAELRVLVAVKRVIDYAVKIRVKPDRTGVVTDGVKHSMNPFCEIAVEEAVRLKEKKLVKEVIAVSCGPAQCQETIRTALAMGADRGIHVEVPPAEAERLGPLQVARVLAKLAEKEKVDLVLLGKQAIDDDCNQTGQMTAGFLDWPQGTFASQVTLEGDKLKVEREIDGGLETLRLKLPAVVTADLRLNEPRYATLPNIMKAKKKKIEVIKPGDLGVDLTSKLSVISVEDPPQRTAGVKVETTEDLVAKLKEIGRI

[3] = target: Putative heat shock protein HSP 90-beta 2 (Homo sapiens, UniProt Q58FF8)
[4] = target: T3, Serine/threonine-protein kinase Nek2 (Homo sapiens, UniProt P51955)
T3 sequence (P51955 whole entry): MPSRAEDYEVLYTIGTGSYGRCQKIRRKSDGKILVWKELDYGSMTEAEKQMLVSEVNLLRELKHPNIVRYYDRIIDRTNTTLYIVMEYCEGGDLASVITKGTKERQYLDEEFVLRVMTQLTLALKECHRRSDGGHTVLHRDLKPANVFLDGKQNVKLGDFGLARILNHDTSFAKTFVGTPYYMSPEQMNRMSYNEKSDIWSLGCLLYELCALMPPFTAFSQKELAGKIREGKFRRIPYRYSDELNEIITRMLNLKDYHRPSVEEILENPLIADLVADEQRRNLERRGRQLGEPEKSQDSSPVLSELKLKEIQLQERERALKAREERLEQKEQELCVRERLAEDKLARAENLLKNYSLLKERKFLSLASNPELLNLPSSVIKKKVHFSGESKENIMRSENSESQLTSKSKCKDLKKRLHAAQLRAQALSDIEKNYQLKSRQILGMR

[5] = target: T4, Serine/threonine-protein kinase PLK4 (Homo sapiens, UniProt O00444)
T4 sequence (O00444 whole entry): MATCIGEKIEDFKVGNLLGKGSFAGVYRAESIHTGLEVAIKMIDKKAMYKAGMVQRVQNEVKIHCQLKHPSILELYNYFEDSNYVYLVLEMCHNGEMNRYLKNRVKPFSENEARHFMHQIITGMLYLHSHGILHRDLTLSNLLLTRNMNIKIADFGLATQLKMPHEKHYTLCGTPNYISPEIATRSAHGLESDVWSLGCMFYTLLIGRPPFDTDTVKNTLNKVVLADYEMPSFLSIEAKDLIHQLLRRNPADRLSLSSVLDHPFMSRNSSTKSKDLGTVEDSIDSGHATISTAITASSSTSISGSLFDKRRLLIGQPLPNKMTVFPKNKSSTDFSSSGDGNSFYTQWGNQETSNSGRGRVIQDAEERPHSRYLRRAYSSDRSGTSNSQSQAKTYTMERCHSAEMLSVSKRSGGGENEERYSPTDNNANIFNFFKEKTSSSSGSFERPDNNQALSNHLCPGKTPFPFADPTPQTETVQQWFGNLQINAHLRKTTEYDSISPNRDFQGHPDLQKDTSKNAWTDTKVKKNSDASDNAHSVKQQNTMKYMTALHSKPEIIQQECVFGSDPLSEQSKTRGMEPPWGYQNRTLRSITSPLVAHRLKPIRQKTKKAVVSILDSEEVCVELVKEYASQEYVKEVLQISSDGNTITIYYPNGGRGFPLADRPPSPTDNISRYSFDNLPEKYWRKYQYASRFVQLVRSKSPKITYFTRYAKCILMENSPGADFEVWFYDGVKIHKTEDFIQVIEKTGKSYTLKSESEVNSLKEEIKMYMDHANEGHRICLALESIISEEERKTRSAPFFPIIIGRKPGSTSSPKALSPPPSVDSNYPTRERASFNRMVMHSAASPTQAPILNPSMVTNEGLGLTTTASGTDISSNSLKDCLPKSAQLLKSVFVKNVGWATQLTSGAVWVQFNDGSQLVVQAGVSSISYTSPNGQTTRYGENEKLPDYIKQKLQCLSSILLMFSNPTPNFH

[6] = target: Rho-associated protein kinase 2 (Homo sapiens, UniProt O75116)
Further: in the data inactive means no Kd found up to 30 µM.

Chain of Putative heat shock protein HSP 90-beta 2 (Q58FF8 whole entry): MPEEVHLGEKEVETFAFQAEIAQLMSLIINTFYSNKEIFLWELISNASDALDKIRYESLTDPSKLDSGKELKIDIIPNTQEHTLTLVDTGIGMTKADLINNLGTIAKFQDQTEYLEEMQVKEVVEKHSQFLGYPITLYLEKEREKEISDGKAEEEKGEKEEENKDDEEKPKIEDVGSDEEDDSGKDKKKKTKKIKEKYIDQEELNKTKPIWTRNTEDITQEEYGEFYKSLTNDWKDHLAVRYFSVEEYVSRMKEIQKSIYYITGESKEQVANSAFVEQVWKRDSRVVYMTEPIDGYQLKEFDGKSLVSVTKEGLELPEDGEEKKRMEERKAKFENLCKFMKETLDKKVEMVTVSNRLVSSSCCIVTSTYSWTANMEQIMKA
Chain of Rho-associated protein kinase 2 (O75116 whole entry): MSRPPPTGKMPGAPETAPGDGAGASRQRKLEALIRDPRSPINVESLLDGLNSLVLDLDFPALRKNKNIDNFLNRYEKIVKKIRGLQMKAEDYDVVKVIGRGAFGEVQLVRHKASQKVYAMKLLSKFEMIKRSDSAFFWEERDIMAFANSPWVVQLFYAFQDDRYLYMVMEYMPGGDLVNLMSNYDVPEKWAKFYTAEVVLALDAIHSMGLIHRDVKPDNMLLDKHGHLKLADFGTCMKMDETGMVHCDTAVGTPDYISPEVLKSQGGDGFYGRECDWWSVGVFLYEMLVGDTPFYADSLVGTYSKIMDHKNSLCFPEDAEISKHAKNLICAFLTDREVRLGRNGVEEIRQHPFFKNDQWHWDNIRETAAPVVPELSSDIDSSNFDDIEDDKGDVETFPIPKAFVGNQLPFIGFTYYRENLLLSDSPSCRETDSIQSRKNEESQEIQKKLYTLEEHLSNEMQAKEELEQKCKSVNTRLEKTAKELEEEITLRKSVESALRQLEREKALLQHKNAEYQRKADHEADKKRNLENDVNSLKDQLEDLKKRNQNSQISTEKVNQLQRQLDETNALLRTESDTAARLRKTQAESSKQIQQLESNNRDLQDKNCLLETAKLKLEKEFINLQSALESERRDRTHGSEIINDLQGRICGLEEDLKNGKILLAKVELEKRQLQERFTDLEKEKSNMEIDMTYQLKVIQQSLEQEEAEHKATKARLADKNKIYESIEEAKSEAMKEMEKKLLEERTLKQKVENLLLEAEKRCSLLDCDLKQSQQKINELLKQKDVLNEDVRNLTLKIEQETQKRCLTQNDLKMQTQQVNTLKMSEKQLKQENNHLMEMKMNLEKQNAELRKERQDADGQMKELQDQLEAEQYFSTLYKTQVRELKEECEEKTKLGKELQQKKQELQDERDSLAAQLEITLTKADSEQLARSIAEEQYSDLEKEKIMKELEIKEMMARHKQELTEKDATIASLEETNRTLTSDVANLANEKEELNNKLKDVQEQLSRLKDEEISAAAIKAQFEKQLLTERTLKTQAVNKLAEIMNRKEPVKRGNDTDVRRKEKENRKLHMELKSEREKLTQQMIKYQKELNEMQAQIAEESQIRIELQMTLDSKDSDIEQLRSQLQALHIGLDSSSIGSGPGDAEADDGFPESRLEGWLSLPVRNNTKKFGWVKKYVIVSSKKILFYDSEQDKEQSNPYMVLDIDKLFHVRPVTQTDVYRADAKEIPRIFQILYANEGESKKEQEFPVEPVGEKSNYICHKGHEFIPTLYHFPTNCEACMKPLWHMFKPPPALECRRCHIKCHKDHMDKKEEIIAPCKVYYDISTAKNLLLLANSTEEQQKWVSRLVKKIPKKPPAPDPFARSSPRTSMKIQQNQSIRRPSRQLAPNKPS

| SMILES | Kd [1] | Kd [2] | Kd [3] | Kd [4] | Kd [5] | Kd [6] |
| --- | --- | --- | --- | --- | --- | --- |
| CCS(=O)(=O)N1CC(CC#N)(n2cc(-c3ncnc4[nH]ccc34)cn2)C1 [BARICITINIB] | > 30 µM (inactive) | > 30 µM (inactive) | > 30 µM (inactive) | > 30 µM (inactive) | > 30 µM (inactive) | 0.756 µM (active) |
| CN1N=C(N)c2cn([C@@H]3O[C@H](COP(=O)(O)O)[C@@H](O)[C@H]3O)c3ncnc1c23 [TRICIRIBINE PHOSPHATE] | > 30 µM (inactive) | > 30 µM (inactive) | > 30 µM (inactive) | > 30 µM (inactive) | > 30 µM (inactive) | > 30 µM (inactive) |
| CNC(=O)c1cc(Oc2ccc(NC(=O)Nc3ccc(Cl)c(C(F)(F)F)c3)c(F)c2)ccn1 [REGORAFENIB] | > 30 µM (inactive) | > 30 µM (inactive) | – | > 30 µM (inactive) | > 30 µM (inactive) | > 30 µM (inactive) |
| COc1cc2nccc(Oc3ccc(NC(=O)NC4CC4)c(Cl)c3)c2cc1C(N)=O [LENVATINIB] | > 30 µM (inactive) | > 30 µM (inactive) | > 30 µM (inactive) | > 30 µM (inactive) | – | > 30 µM (inactive) |
| Cc1ccc(S(=O)(=O)Nc2nc3ccccc3nc2Nc2ccc3nsnc3c2)cc1 | > 30 µM (inactive) | – | – | > 30 µM (inactive) | > 30 µM (inactive) | > 30 µM (inactive) |
| Cc1c(F)cc(C(=O)NC2CC2)cc1-c1ccc(C(=O)NCC(C)(C)C)cn1 [LOSMAPIMOD] | > 30 µM (inactive) | – | > 30 µM (inactive) | > 30 µM (inactive) | > 30 µM (inactive) | > 30 µM (inactive) |
| C=CC(=O)N1CCC(Oc2cc3c(Nc4ccc(Cl)c(Cl)c4F)ncnc3cc2OC)CC1 [POZIOTINIB] | > 30 µM (inactive) | – | – | > 30 µM (inactive) | > 30 µM (inactive) | > 30 µM (inactive) |
| Nc1nc(N)c2nc(-c3cccc(O)c3)c(-c3cccc(O)c3)nc2n1 [TG100-115] | > 30 µM (inactive) | – | > 30 µM (inactive) | – | – | – |
| O=C(Nc1cccc(Cl)c1)Nc1ncc(CCNc2ncnc3ccsc23)s1 [SNS-314] | > 30 µM (inactive) | > 30 µM (inactive) | > 30 µM (inactive) | – | – | – |
| COc1cc(OC)c(/C=C/S(=O)(=O)Cc2ccc(OC)c(NCC(=O)O)c2)c(OC)c1 [RIGOSERTIB] | > 30 µM (inactive) | – | > 30 µM (inactive) | > 30 µM (inactive) | > 30 µM (inactive) | > 30 µM (inactive) |
| C[C@@H](c1ccc2nccn2c1)n1nnc2ncc(-c3cnn(C)c3)nc21 [SAVOLITINIB] | > 30 µM (inactive) | > 30 µM (inactive) | > 30 µM (inactive) | – | – | > 30 µM (inactive) |
| CN1CCN(c2ccc3nc(-c4c(N)c5c(F)cccc5[nH]c4=O)[nH]c3c2)CC1 [DOVITINIB] | > 30 µM (inactive) | > 30 µM (inactive) | > 30 µM (inactive) | – | – | – |
| C1=C/COCc2cc(ccc2OCCN2CCCC2)Nc2nccc(n2)-c2cccc(c2)COC/1 [PACRITINIB] | 0.033 µM (active) | – | > 30 µM (inactive) | > 30 µM (inactive) | > 30 µM (inactive) | > 30 µM (inactive) |
| CCc1cnn2c(NCc3ccc[n+]([O-])c3)cc(N3CCCC[C@H]3CCO)nc12 [DINACICLIB] | > 30 µM (inactive) | > 30 µM (inactive) | > 30 µM (inactive) | – | > 30 µM (inactive) | > 30 µM (inactive) |
| Cc1cn(-c2cc(NC(=O)c3ccc(C)c(Nc4nccc(-c5cccnc5)n4)c3)cc(C(F)(F)F)c2)cn1 [NILOTINIB] | > 30 µM (inactive) | – | > 30 µM (inactive) | – | – | – |
| OCCn1cc(-c2cnc3nnn(Cc4ccc5ncccc5c4)c3n2)cn1 [PF-04217903] | > 30 µM (inactive) | > 30 µM (inactive) | > 30 µM (inactive) | – | > 30 µM (inactive) | > 30 µM (inactive) |
| Cn1cc(-c2ccc(F)c(C(F)(F)F)c2)nc1C1CCN(c2ncnc3[nH]ncc23)CC1 [LY-2584702] | > 30 µM (inactive) | – | > 30 µM (inactive) | > 30 µM (inactive) | > 30 µM (inactive) | > 30 µM (inactive) |
| CC(C)Nc1cc(-c2c[nH]c(C(=O)N[C@H](CO)c3cccc(Cl)c3)c2)c(Cl)cn1 [ULIXERTINIB] | > 30 µM (inactive) | – | > 30 µM (inactive) | > 30 µM (inactive) | > 30 µM (inactive) | > 30 µM (inactive) |
| CNC(=O)c1ccc(C)c(-n2c(C)cc(OCc3ccc(F)cc3F)c(Br)c2=O)c1 [PH-797804] | > 30 µM (inactive) | > 30 µM (inactive) | > 30 µM (inactive) | > 30 µM (inactive) | > 30 µM (inactive) | – |

Further lines, results first:

| Kd [1] | Kd [2] | Kd [3] | Kd [4] | Kd [5] | Kd [6] | SMILES |
| --- | --- | --- | --- | --- | --- | --- |
| > 30 µM (inactive) | > 30 µM (inactive) | > 30 µM (inactive) | > 30 µM (inactive) | > 30 µM (inactive) | > 30 µM (inactive) | C[C@@H](Nc1cc(F)cc(F)c1)c1cc(C(=O)N(C)C)cc2c(=O)cc(N3CCOCC3)oc12 [AZD-8186] |
| > 30 µM (inactive) | > 30 µM (inactive) | > 30 µM (inactive) | > 30 µM (inactive) | > 30 µM (inactive) | > 30 µM (inactive) | Cc1cc([C@@H](C)Nc2ccccc2C(=O)O)c2nc(N3CCOCC3)cc(=O)n2c1 [AZD-6482] |
| 0.202 µM (active) | > 30 µM (inactive) | > 30 µM (inactive) | > 30 µM (inactive) | 0.908 µM (active) | 3.97 µM (active) | O=C(Nc1ccc(-c2ccnc(Nc3ccc(N4CCOCC4)cc3)n2)cc1)C1CCCN1 (stereo unspecified) [XL-019] |
| > 30 µM (inactive) | > 30 µM (inactive) | > 30 µM (inactive) | – | – | – | Cc1cc(Nc2cc(N3CCN(C)CC3)nc(/C=C/c3ccccc3)n2)n[nH]1 [ENMD-2076] |
| > 30 µM (inactive) | – | > 30 µM (inactive) | > 30 µM (inactive) | > 30 µM (inactive) | > 30 µM (inactive) | O=C1NC(=O)/C(=C/c2ccc3nccc(-c4ccncc4)c3c2)S1 [GSK-1059615] |
| > 30 µM (inactive) | > 30 µM (inactive) | > 30 µM (inactive) | – | – | – | CCn1c(-c2nonc2N)nc2c(C#CC(C)(C)O)ncc(OC[C@H]3CCCNC3)c21 [GSK-690693] |
| 0.545 µM (active) | > 30 µM (inactive) | > 30 µM (inactive) | – | – | – | Cc1nc(N)sc1-c1ccnc(Nc2ccc(N3CCOCC3)cc2)n1 [CYC-116] |
| > 30 µM (inactive) | – | > 30 µM (inactive) | > 30 µM (inactive) | > 30 µM (inactive) | > 30 µM (inactive) | COc1cc(CCc2cc(NC(=O)c3ccc(N4C[C@@H](C)N[C@@H](C)C4)cc3)n[nH]2)cc(OC)c1 [AZD-4547] |

Reference: ChEMBL document CHEMBL3991601, “The target landscape of clinical kinase drugs” (Science, 2017)
